These results are taken from ChEMBL document CHEMBL5260847, “Current scenario of indole derivatives with potential anti-drug-resistant cancer activity” (Eur J Med Chem, 2020).

Bounds are passed on as bounds.

The subject of one series is PC-3. Nature of the series: Cytotoxicity activity against human PC-3 cells assessed as reduction in cell viability by MTT assay. The class given is functional, cell-based.
The subject of the next series is CWR22R. Nature of the series: Cytotoxicity activity against human 22Rv1 assessed as reduction in cell viability by MTT assay. It counts as functional, cell-based.
The test system of another series is IEC-6. Nature of the series: Antiproliferative activity against rat IEC-6 cells assessed as reduction in cell viability measured after 48 hrs by MTT assay. It counts as functional, cell-based. The settings on record: IEC-6, 48 h.
In series [1] the test system is H69AR. Nature of the series: Antiproliferative activity against multi-drug resistant human NCI-H69AR assessed as reduction in cell viability. It counts as functional, cell-based.
The test system of series [2] is A549. Nature of the series: Antiproliferative activity against drug-sensitive human A549 cells assessed as reduction in cell viability by MTT assay. It counts as functional, cell-based.
The nature of series [3]: Selectivity index, ratio of IC50 for antiproliferative activity against human MCF-10A cells to IC50 for antiproliferative activity against […] cells by MTT assay. It counts as toxicity, cell-based. The settings on record: MCF-10A cells and IEC-6 cells, read-out: Selectivity Index.
The test system of series [4] is H69AR. Nature of the series: Antiproliferative activity against multidrug resistant human NCI-H69AR assessed as inhibition of cell proliferation by MTT assay. The class given is functional, cell-based.
For series [5], the system named is HT-29. Nature of the series: Antiproliferative activity against human HT-29 cells assessed as reduction in cell viability celltiter-Glo assay. The class given is functional, cell-based.
The subject of another series is ZR-75-1. Nature of the series: Antiproliferative activity against human ZR-75-1 cells assessed as reduction in cell viability celltiter-Glo assay. The class given is functional, cell-based.
A further series concerns A2780. Nature of the series: Antiproliferative activity against human A2780 cells assessed as inhibition of cell proliferation measured after 24 hrs by MTT assay. Conditions: A2780, 24 h. The class given is functional, cell-based.
For the next series, the system named is HCT-15. Nature of the series: Antiproliferative activity against multidrug-resistant human HCT-15 cells assessed as reduction in cell viability. It counts as functional, cell-based.
Another series relates to HCT-116. Nature of the series: Antiproliferative activity against multi-drug - resistant human HCT-116 cells assessed as reduction in cell viability. It counts as functional, cell-based.
For series [6], the system named is KB. Nature of the series: Cytotoxicity against human KB cells assessed as reduction in cell viability measured after 48 hrs by MTT assay. The class given is functional, cell-based.
Series [7] has as its system HepG2. Nature of the series: Anticancer activity against human HepG2 cells assessed as inhibition of cell growth. The class given is functional, cell-based.
For the next series, the system named is MCF7. Nature of the series: Cytotoxicity activity against human MCF7 cells assessed as reduction in cell viability incubated for 72 hrs by MTT assay. It counts as functional, cell-based. Conditions: MCF7, 72 h.
Series [8] has as its system HT-29. Nature of the series: Cytotoxicity activity against human HT-29 cells assessed as reduction in cell growth measured after 72 hrs by MTT assay. The class given is functional, cell-based. Conditions: HT-29, 72 h.
Series [9] relates to A549. Nature of the series: Cytotoxicity activity against human A549 cells assessed as reduction in cell viability incubated for 72 hrs by MTT assay. The class given is functional, cell-based. The settings on record: A549, 72 h.
Series [10] relates to HepG2. Nature of the series: Cytotoxicity activity against human HepG2 cells assessed as reduction in cell viability incubated for 72 hrs by MTT assay. It counts as functional, cell-based. The settings on record: HepG2, 72 h.
Series [11] concerns HeLa. Nature of the series: Antiproliferative activity against human Hela cells assessed as reduction in cell viability measured after 48 hrs by MTT assay. It counts as functional, cell-based.
The subject of the next series is K562. Nature of the series: Cytotoxicity against human K562 cells assessed as reduction in cell viability incubated for 72 hrs by MTT assay. The class given is functional, cell-based. Conditions: K562, 72 h.
Series [12] relates to HeLa. Nature of the series: Anticancer activity against human HeLa cells assessed as inhibition of cell growth. The class given is functional, cell-based.
The next series concerns K562/A02. Nature of the series: Antiproliferative activity against human K562/A02 cells assessed as reduction in cell viability measured after 2 days by MTT assay. Conditions: K562/A02, 48 h. The class given is functional, cell-based.
For series [13], the system named is KB. Nature of the series: Antiproliferative activity against human KB cells assessed as reduction in cell growth incubated for 2 days by MTT assay. The settings on record: 48 h. The class given is functional, cell-based.
A short description of series [14]: Cytotoxicity activity against human U87MG.deltaEGFR cells assessed as reduction in cell viability incubated for 72 hrs by MTT assay. It counts as functional, cell-based.
A further series deals with LNCaP. Nature of the series: Cytotoxicity activity against human LNCaP cells assessed as reduction in cell viability. The class given is functional, cell-based.

For `CC(=O)O[C@]1(C)CO[C@@]23CC[C@@]4(C)[C@@](O)(CC[C@H]5Cc6c([nH]c7cc(Cl)ccc67)[C@@]54C)C2=CC(=O)[C@@H]1O3`, the IC50 with PC-3 turned out to be 4.86 µM; with CWR22R, 3.8 µM.

Take `O=C1Nc2ccc(Cl)cc2/C1=N/N=C/c1nc(-c2ccccc2)cs1`: the IC50 is 8.98 µM in the series with IEC-6; 16 µM with H69AR [1]; 10.1 µM in the series with A549 [2]; 16.6 µM in the series with H69AR [4]; 7.25 µM in the series on HT-29 [5]; 1.95 µM with ZR-75-1. Also, the selectivity ratio in [3] was determined as 1.8.

Turning to `Fc1ccc(C2=NCc3c([nH]c4ccccc34)S2)cc1`, the IC50 in the series on A2780 turned out to be 9.3 µM.

On to `[O-][n+]1onc2c3cc[nH]c3ccc21`, for which the results for the IC50 in the series with HCT-15 and with HCT-116 were 0.69 µM and 2.06 µM, respectively.

Regarding `CC[C@@]12CCCN3CCc4c(n(c5ccccc45)[C@H](c4ccc5c(c4)[C@@]46CCN7CCC[C@]8(CC[C@]4(C[C@@H]8C(=O)OC)N5)[C@H]76)C1)[C@H]32`, in the series on KB [6], the IC50 was 7.8 µM.

Take `CO/N=C1\C(=O)N(Cc2cn(CCOCCN3C(=O)/C(=N/OC)c4ccccc43)nn2)c2ccccc21`: the IC50 in the series with HepG2 [7] amounted to 0.18 µM.

As to `CCC1CN(C)[C@H]2Cc3c([nH]c4ccccc34)[C@@H](n3c4c(c5c(OC)c([C@H]6C[C@H]7[C@H](CC)CN(C)[C@@H](Cc8c6[nH]c6ccccc86)[C@H]7C(=O)OC)ccc53)CCN3C[C@H]5CC[C@H]4[C@H]3[C@@H]5CC)C[C@@H]1[C@@H]2C(=O)OC` (single isomer, unassigned), the 50% inhibitory concentration (IC50) was found to be 11.3 µM with MCF7, 11.4 µM with HT-29 [8], 10.2 µM in the series with A549 [9] and 12.6 µM in the series on HepG2 [10].

Take `O=Cc1c[nH]c2ccccc12` [3-FORMYLINDOLE]: in the series with HeLa [11], the IC50 was more than 100 µM.

Take `COc1cccc2c1C(=O)c1c(O)c3c(c(O)c1C2=O)C[C@@](O)(C(=O)CO)C[C@@H]3O[C@H]1C[C@H](N)[C@H](O)[C@H](C)O1` [DOXORUBICIN]: the values for the IC50 in the series with HT-29 [8] and in the series on K562 were 1.48 µM and more than 168 µM, respectively.

`COc1cc([C@@H]2c3cc4c(cc3[C@@H](O[C@@H]3O[C@@H]5CO[C@@H](C)O[C@H]5[C@H](O)[C@H]3O)[C@H]3COC(=O)[C@H]23)OCO4)cc(OC)c1O` [ETOPOSIDE]: the half-inhibitory concentration (IC50) was more than 50 µM in the series on HeLa [12], 6.94 µM with HepG2 [7], 10.6 µM in the series on K562/A02 and 1.02 µM in the series with KB [13].

Take `COC(=O)[C@H]1[C@H]2C[C@@H]3c4[nH]c5cc(OC)ccc5c4CCN3C[C@H]2C[C@@H](OC(=O)c2cc(OC)c(OC)c(OC)c2)[C@@H]1OC` [RESERPINE]: the IC50 in series [14] stood at 9.15 µM.

For `CC[C@]1(O)C[C@H]2CN(CCc3c([nH]c4ccccc34)[C@@](C(=O)OC)(c3cc4c(cc3OC)N(C=O)[C@H]3[C@@](O)(C(=O)OC)[C@H](OC(C)=O)[C@]5(CC)C=CCN6CC[C@]43[C@@H]65)C2)C1` [VINCRISTINE], the IC50 with LNCaP amounted to 2.6 µM.
